Data: patent US6284774A, “4-Benzyl piperidine alkylsulfoxide heterocycles and their use as subtype-selective NMDA receptor antagonists” (priority 2000, dated 2001)

Assays:
[1] = tested on: 6-Hydroxydopamine-lesioned rats; assay: 6-OHDA Rat Assay: potentiation of contraversive rotation induced by L-DOPA methyl ester; assay type: in vivo, Sprague-Dawley rats; conditions: po; L-DOPA methyl ester 10 mg/kg SC; total contraversive rotations over 6 hour vs L-DOPA only
Protocol: Adult male Sprague-Dawley rats were anesthetized with chloral hydrate and unilateral lesions of the nigrostriatal dopamine system were accomplished by infusion of 8 μg of 6-hydroxydopamine HBr (6-OHDA) into the right medial forebrain bundle. […] A minimum of 3 weeks after surgery, the rotational behavior induced by apomorphine HCL 50 μg/kg subcutaneously (SC) was assessed. […] Rotational behavior was measured using an automatic rotometer system (Rotorat Rotational Activity System, MED Associates, Georgia, Vt.). Anti-parkinsonian activity was assessed as the ability of the compound to potentiate the contraversive rotation induced by L-DOPA methyl ester, 10 mg/kg SC, over a 6 hour period. Experiments were conducted using a crossover paradigm where each rat received either a vehicle plus L-DOPA, or the test compound plus L-DOPA, in randomized order. Rats were tested at 7 day intervals. In experiments in which the compound was tested orally, rats were food deprived for 16 hours. Statistical analysis between treatment groups were performed using a paired t-test.

NR1A /2B = molecular target: T1, NR1A /2B (Rattus norvegicus, UniProt P35439+Q00960); assay: Electrophysiological assay at NMDA receptor subunits NR1A/2B expressed in Xenopus oocytes; assay type: cell-based; conditions: rat clones in Xenopus oocytes, currents activated by glutamate (100 μM) and glycine (1-100 μM)
T1 construct: expressed in transfected cells; host or cells: Xenopus laevis oocytes (cRNA micro-injection)
Source text: (§1) Many of the properties of native NMDA receptors are seen in recombinant homomeric NR1 receptors expressed in Xenopus oocytes. These properties are altered by the NR2 subunits. Recombinant NMDA receptors expressed in Xenopus oocytes have been studied by voltage-clamp recording, as has developmental and regional expression of the mRNAs encoding NMDA receptor subunits. Electrophysiological assays were utilized to characterize the actions of compounds at NMDA receptors expressed in Xenopus oocytes.
(§2) Electrophysiological Assays at NMDA receptor subunits.
(§3) cDNA clones encoding the NR1A, NR2A, NR2B, and NR2C rat NMDA receptor subtypes were used. […] The clones were transformed into appropriate host bacteria and plasmid preparations were made with conventional DNA purification techniques. A sample of each clone was linearized by restriction enzyme digestion and cRNA was synthesized with T3 RNA polymerase. The cRNA was diluted to 400 ng/μl and stored in 1 μl aliquots at -80° C. until injection.
(§4) The Xenopus Oocyte Expression System
(§5) Follicle-enclosed oocytes were micro-injected with 1:1 mixtures of NR1A:NR2A, 2B or 2C; infecting 1-10 ng of RNA encoding each receptor subunit. NR1A encoding RNA was injected alone at ~20 ng. Oocytes were stored in Barth's medium containing (in mM):NaCl, 88; KCl, 1; CaCl2, 0.41; Ca(NO3)2, 0.33; MgSo4, 0.82 NaHCO3, 2.4; HEPES 5, pH 7.4, with 0.11 mg/ml gentamicin sulphate. While oocytes were still surrounded by enveloping ovarian tissues the Barth's medium was supplemented with 0.1% bovine serum.
(§6) Electrical recordings were made using a conventional two-electrode voltage clamp (Dagan TEV-200) over periods ranging between 3-21 days following injection. […] Drugs were applied by bath perfusion. Using oocytes expressing different subunit combinations of NMDA receptor, NMDA currents were activated by co-application of glutamate (100 μM) and glycine (1-100 μM). Inhibitory potency of the novel antagonists was assessed on responses elicited by fixed concentrations of glutamate and glycine, by measuring reductions in current induced by progressively increasing concentrations of antagonist. Concentration-inhibition curves were fit with equation 1.
(§7) in which Icontrol is the current evoked by agonists alone, pIC50 =-log IC50, IC50 is the concentration of antagonist that produces half maximal inhibition, and n is the slope factor. […] For incomplete curves analysis by fitting was unreliable and IC50 values were calculated by simple regression over linear portions of the curves (Origin: Microcal Software).

NRIA /2A = molecular target: T2, NRIA /2A (Rattus norvegicus, UniProt P35439+Q00959); assay: Electrophysiological assay at NMDA receptor subunits NR1A/2A expressed in Xenopus oocytes; assay type: cell-based; conditions: rat clones in Xenopus oocytes, currents activated by glutamate (100 μM) and glycine (1-100 μM)
T2 construct: expressed in transfected cells; host or cells: Xenopus laevis oocytes (cRNA micro-injection)
Source text: as §1, §2, §3, §4, §5, §6, §7

NR1A /2C = molecular target: T3, NR1A /2C (Rattus norvegicus, UniProt P35439+Q00961); assay: Electrophysiological assay at NMDA receptor subunits NR1A/2C expressed in Xenopus oocytes; assay type: cell-based; conditions: rat clones in Xenopus oocytes, currents activated by glutamate (100 μM) and glycine (1-100 μM)
T3 construct: expressed in transfected cells; host or cells: Xenopus laevis oocytes (cRNA micro-injection)
Source text: as §1, §2, §3, §4, §5, §6, §7

[2] = tested on: d-amphetamine-induced stimulation; conditions: injected into rat nucleus accumbens vs striatum; cited from earlier work
[3] = at plasma levels leading to NMDA receptor antagonism; cited from earlier work

T2 sequence (Q00959 23-1464, other chains not shown): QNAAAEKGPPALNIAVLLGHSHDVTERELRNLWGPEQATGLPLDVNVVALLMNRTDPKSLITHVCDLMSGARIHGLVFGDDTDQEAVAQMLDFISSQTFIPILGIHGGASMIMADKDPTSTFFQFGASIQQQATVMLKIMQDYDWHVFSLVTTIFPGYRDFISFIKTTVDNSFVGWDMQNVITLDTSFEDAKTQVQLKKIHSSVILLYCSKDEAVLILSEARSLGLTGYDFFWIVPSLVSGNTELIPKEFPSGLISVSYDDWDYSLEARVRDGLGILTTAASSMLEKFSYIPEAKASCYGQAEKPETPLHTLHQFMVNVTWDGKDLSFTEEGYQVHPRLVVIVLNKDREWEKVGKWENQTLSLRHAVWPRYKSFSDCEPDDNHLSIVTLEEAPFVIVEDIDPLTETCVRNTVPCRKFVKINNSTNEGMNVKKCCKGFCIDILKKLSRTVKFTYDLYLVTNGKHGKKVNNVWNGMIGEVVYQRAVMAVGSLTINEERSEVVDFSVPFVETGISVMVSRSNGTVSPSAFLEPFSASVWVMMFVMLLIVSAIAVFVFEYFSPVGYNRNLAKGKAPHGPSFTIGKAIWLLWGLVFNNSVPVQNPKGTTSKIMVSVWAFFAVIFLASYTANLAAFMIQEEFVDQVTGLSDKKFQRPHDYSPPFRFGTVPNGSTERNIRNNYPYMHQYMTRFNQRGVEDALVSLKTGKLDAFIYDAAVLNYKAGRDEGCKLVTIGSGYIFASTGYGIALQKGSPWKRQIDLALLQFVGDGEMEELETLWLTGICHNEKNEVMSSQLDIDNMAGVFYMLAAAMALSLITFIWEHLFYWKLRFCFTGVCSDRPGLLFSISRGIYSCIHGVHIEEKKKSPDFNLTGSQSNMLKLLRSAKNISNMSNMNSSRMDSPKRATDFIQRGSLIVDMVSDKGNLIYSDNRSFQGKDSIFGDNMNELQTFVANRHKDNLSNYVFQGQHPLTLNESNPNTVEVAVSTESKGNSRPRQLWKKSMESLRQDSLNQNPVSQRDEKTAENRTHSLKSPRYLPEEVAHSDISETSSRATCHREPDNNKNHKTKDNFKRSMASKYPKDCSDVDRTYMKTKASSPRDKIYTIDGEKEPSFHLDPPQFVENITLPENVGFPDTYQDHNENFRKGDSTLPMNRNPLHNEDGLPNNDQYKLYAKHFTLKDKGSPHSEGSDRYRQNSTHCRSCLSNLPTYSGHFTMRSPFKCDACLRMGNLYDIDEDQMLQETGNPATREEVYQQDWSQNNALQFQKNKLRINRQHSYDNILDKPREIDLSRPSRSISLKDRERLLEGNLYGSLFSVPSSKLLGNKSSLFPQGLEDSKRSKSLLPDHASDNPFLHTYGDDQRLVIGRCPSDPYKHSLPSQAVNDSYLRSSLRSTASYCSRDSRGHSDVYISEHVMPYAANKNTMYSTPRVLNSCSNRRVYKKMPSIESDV
T3 sequence (Q00961 20-1237, other chains not shown): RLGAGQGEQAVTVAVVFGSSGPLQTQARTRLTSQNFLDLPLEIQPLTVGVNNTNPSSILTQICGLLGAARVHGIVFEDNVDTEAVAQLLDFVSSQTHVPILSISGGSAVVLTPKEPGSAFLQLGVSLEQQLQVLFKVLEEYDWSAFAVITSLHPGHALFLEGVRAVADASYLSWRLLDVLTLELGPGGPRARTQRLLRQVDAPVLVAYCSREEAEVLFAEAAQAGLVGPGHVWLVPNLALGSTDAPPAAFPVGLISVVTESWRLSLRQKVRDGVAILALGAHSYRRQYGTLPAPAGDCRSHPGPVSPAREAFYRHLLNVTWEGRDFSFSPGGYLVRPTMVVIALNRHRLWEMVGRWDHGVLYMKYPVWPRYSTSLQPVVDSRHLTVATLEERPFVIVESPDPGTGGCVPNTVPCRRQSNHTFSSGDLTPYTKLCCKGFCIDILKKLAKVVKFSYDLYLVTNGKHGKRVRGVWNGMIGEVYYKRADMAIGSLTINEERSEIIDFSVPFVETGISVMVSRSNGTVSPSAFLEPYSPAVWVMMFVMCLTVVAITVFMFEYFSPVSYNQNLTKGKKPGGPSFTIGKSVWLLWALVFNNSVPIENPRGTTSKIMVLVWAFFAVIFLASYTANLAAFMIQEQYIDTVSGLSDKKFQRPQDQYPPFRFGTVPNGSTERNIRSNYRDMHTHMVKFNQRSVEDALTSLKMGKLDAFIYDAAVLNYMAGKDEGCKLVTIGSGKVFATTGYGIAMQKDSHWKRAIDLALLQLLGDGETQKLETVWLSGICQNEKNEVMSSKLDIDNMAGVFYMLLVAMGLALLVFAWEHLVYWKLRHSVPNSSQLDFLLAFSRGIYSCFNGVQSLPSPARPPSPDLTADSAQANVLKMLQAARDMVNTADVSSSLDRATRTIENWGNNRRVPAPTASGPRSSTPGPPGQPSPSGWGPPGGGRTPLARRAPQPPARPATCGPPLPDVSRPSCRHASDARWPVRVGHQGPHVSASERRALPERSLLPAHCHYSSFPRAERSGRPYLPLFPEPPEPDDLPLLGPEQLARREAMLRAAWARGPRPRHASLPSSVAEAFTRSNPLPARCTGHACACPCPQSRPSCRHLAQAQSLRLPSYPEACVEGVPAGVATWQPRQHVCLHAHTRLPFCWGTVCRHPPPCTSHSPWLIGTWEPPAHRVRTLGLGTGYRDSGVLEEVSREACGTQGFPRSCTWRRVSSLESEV
T1 sequence (Q00960 27-1482, other chains not shown): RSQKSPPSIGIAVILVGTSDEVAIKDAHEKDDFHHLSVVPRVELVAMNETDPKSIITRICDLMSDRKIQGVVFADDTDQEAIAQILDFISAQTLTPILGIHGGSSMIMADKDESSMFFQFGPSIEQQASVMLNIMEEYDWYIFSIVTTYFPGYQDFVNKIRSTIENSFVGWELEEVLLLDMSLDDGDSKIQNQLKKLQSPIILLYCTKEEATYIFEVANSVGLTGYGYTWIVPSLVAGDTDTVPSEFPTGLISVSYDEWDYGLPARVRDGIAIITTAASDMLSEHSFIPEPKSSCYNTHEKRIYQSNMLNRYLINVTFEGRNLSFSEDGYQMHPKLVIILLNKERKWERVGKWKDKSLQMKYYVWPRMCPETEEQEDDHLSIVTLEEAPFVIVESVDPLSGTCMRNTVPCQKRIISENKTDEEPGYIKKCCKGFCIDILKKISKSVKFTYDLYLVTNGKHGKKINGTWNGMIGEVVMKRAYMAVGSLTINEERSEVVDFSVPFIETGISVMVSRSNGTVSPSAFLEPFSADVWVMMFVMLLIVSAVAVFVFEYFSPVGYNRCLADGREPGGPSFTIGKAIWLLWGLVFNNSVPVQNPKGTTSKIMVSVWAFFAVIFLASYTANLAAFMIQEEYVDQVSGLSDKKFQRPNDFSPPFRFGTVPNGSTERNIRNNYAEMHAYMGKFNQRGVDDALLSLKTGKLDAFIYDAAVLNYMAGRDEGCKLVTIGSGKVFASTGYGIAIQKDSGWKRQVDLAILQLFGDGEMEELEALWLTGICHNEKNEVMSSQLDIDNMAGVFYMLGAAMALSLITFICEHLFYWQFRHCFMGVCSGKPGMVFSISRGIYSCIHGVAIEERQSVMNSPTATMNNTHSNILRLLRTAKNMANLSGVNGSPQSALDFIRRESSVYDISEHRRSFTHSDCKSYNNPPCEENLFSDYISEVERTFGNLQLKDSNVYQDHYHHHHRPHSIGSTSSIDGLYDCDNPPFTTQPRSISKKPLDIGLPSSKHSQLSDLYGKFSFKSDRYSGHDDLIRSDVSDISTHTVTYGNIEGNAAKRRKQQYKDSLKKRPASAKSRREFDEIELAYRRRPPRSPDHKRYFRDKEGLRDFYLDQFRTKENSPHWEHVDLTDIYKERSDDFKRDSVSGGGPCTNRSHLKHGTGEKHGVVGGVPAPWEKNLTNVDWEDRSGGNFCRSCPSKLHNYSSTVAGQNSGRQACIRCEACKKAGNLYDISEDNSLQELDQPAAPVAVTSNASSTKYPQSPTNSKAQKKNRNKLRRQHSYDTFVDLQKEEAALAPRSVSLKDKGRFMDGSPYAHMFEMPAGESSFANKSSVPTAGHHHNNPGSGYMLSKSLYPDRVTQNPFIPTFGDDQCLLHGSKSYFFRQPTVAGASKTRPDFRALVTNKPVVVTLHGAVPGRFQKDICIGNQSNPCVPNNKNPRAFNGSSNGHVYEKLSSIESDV

| Compound | IC50 (NR1A /2B) | IC50 (NRIA /2A) | IC50 (NR1A /2C) | 6-OHDA rat MED (minimum effective dose) [1] | antagonism of d-amphetamine-induced stimulation [2] | antiparkinsonian-like activity [3] |
| --- | --- | --- | --- | --- | --- | --- |
| O=c1[nH]c2ccc([S+]([O-])CCN3CCC(Cc4ccc(F)cc4)CC3)cc2o1 (single isomer, unassigned; (-)) [Example 20, (-)-6-{2-[4,(4-fluorobenzyl)piperidin-1-yl]ethanesulfinyl}-3H-benzooxazol-2-one] | 0.03 µM | – | – | 30 mg/kg | – | – |
| O=C(O)c1cc(O)c2c(Cl)cc(Cl)cc2n1 [5,7-dichlorokynurenic acid] | – | – | – | – | selectively antagonize d-amphetamine-induced stimulation when injected into rat nucleus accumbens but not in striatum | – |
| O=c1[nH]c2ccc([S+]([O-])CCN3CCC(Cc4ccc(F)cc4)CC3)cc2o1 (single isomer, unassigned; (+)) [Example 19, (+)-6-{2-[4-(4-fluorobenzyl)piperidine-1-yl]ethanesulfinyl}-3H-benzooxazol-2-one] | 0.03 µM | – | – | 1 mg/kg | – | – |
| O=c1[nH]c2ccc([S+]([O-])CCN3CCC(Cc4ccc(F)cc4)CC3)cc2o1 (stereo not shown) [Example 1, 6-[2-[4-(4-Fluoro-benzyl)-piperidin-1-yl]-ethanesulfinyl]-3H-benzooxazol-2-one] | 0.03 µM | 105 µM | 190 µM | 1 mg/kg | – | – |
| N[C@@H]1CCN(O)C1=O [(+) HA-966] | – | – | – | – | selectively antagonize d-amphetamine-induced stimulation when injected into rat nucleus accumbens but not in striatum | – |
| O=c1[nH]c2cc(Cl)c([S+]([O-])CCN3CCC(Cc4ccc(F)cc4)CC3)cc2o1 (stereo not shown) [Example 18, 5-Chloro-6-{2-[4-(4-fluorobenzyl)piperidin-1-yl]ethanesulfinyl}-3H-benzooxazol-2-one] | 0.11 µM | 35 µM | > 300 µM | > 10 mg/kg | – | – |
| O=c1[nH]c2ccc([S+]([O-])CCN3CCC(O)(Cc4ccccc4)CC3)cc2o1 (stereo not shown) [Example 8, 6-[2-(4-benzyl-4-hydroxypiperidin-1-yl)-ethanesulfinyl]-3H-benzooxazol-2-one] | 1.1 µM | 40 µM | 230 µM | – | – | – |
| O=c1[nH]c2ccc([S+]([O-])CCN3CCC(Cc4ccc(Cl)cc4)CC3)cc2o1 (stereo not shown) [Example 2, 6-{2-[4-(4-chloro-benzyl)-piperidin-1-yl]-ethanesulfinyl}-3H-benzooxazol-2-one] | 0.02 µM | > 300 µM | 200 µM | 3 mg/kg | – | – |
| CC12CC3CC(C)(C1)CC(N)(C3)C2 [memantine] | – | – | – | – | – | showed antiparkinsonian-like activity in animals |
| NC12CC3CC(CC(C3)C1)C2 [amantadine] | – | – | – | – | – | showed antiparkinsonian-like activity in animals |

More lines, main results first:

| IC50 (NR1A /2B) | IC50 (NRIA /2A) | IC50 (NR1A /2C) | Compound | 6-OHDA rat MED (minimum effective dose) [1] | antagonism of d-amphetamine-induced stimulation [2] | antiparkinsonian-like activity [3] |
| --- | --- | --- | --- | --- | --- | --- |
| 0.05 µM | 40 µM | 140 µM | O=c1[nH]c2ccc([S+]([O-])CCN3CCC(Cc4cccc(F)c4F)CC3)cc2o1 (stereo not shown) [Example 11, 6-{2-[4-(2,3-difluorobenzyl)-piperidin-1-yl]-ethanesulfinyl}-3H-benzooxazol-2-one] | 10 mg/kg | – | – |
| 0.04 µM | 35 µM | 150 µM | O=c1[nH]c2ccc([S+]([O-])CCN3CCC(Cc4ccc(C(F)(F)F)cc4)CC3)cc2o1 (stereo not shown) [Example 13] | 10 mg/kg | – | – |
| 0.09 µM | 55 µM | 60 µM | O=c1[nH]c2ccc([S+]([O-])CCN3CCC(Cc4ccccc4F)CC3)cc2o1 (stereo not shown) [Example 7, 6-{2-[4-(2-fluorobenzyl)-piperidin-1-yl]-ethanesulfinyl}-3H-benzooxazol-2-one] | 10 mg/kg | – | – |
| 0.01 µM | 30 µM | 130 µM | O=c1[nH]c2ccc([S+]([O-])CCN3CCC(Cc4ccc(F)cc4F)CC3)cc2o1 (stereo not shown) [Example 12, 6-{2-[4-(2,4-difluorobenzyl)-piperidin-1-yl]-ethanesulfinyl}-3H-benzooxazol-2-one] | 10 mg/kg | – | – |
| 0.04 µM | 55 µM | 160 µM | O=c1[nH]c2ccc([S+]([O-])CCN3CCC(Cc4c(F)cccc4F)CC3)cc2o1 (stereo not shown) [Example 14, 6-{2-4[-(2,6-difluorobenzyl)-piperidin-1-yl]-ethanesulfinyl}-3H-benzooxazol-2-one] | > 10 mg/kg | – | – |
| 0.1 µM | 55 µM | 150 µM | COc1ccc(CC2CCN(CC[S+]([O-])c3ccc4[nH]c(=O)oc4c3)CC2)cc1 (stereo not shown) [Example 5, 6-{2-[4-(4-methoxybenzyl)-piperidin-1-yl]-ethanesulfinyl}-3H-benzooxazol-2-one] | > 10 mg/kg | – | – |
| 0.1 µM | 70 µM | 80 µM | O=c1[nH]c2ccc([S+]([O-])CCN3CCC(Cc4ccc(Cl)c(Cl)c4)CC3)cc2o1 (stereo not shown) [Example 6, 6-{2-[4-(3,4-dichlorobenzyl)-piperidin-1-yl]-ethanesulfinyl}-3H-benzooxazol-2-one] | > 10 mg/kg | – | – |
| 0.03 µM | 100 µM | – | Cc1ccc(CC2CCN(CC[S+]([O-])c3ccc4[nH]c(=O)oc4c3)CC2)cc1 (stereo not shown) [Example 3, 6-{2-[4-(4-methyl-benzyl)-piperidin-1-yl]-ethanesulfinyl}-3H-benzooxazol-2-one] | 3 mg/kg | – | – |
| 0.9 µM | 50 µM | 200 µM | O=c1[nH]c2ccc([S+]([O-])CCN3CCC(O)(Cc4ccc(F)cc4)CC3)cc2o1 (stereo not shown) [Example 9, 6-{2-[4-(4-fluorobenzyl)-4-hydroxy-piperidin-1-yl]-ethanesulfinyl}-3H-benzooxazol-2-one] | > 10 mg/kg | – | – |
| 10 µM | > 300 µM | > 300 µM | CC(=O)Nc1ccc(CC2CCN(CC[S+]([O-])c3ccc4[nH]c(=O)oc4c3)CC2)cc1 (stereo not shown) [Example 16, N-(4-{1-[2-(2-oxo-2,3-dihydrobenzooxazol-6-sulfinyl)ethyl]piperidin-4-ylmethyl}phenyl)acetamide] | – | – | – |
| 0.34 µM | 70 µM | 140 µM | O=C(c1ccccc1)C1CCN(CC[S+]([O-])c2ccc3[nH]c(=O)oc3c2)CC1 (stereo not shown) [Example 10, 6-[2-(4-benzoylpiperidin-1-yl)-ethanesulfinyl]-3H-benzooxazol-2-one] | – | – | – |
| 0.04 µM | 90 µM | 150 µM | O=c1[nH]c2ccc([S+]([O-])CCN3CCC(Cc4ccc(Cl)cc4Cl)CC3)cc2o1 (stereo not shown) [Example 15, 6-{2-[4-(2,4-dichlorobenzyl)-piperidin-1-yl]-ethanesulfinyl}-3H-benzooxazol-2-one] | 10 mg/kg | – | – |
| 0.03 µM | > 300 µM | > 300 µM | O=c1[nH]c2ccc([S+]([O-])CCN3CCC(Cc4ccccc4)CC3)cc2o1 (stereo not shown) [Example 4, 6-[2-(4-Benzyl-piperidin-1-yl)-ethanesulfinyl]-3H-benzooxazol-2-one] | 3 mg/kg | – | – |
| 0.16 µM | 40 µM | > 300 µM | O=c1[nH]c2cc(Cl)c([S+]([O-])CCN3CCC(Cc4ccccc4)CC3)cc2o1 (stereo not shown) [Example 17, 6-[2-(4-benzylpiperidin-1-yl)ethanesulfinyl]-5-chloro-3H-benzooxazol-2-one] | > 10 mg/kg | – | – |
